These results are taken from ChEMBL document CHEMBL4342408, “Therapeutic potentials of plant iridoids in Alzheimer's and Parkinson's diseases: A review” (Eur J Med Chem, 2019).

The nature of assay [1]: Inhibition of beta secretase (unknown origin). Further details: species or system Homo sapiens.
Assay [2] can be described thus: Inhibition of human tau (441 residues) P301L mutant expressed in Escherichia coli BL21(DE3) assessed as reduction in aggregation.
The species entered for assay [3] is Homo sapiens. Nature of the assay: Inhibition of human tau (441 residues) P301L mutant expressed in Escherichia coli BL21(DE3) assessed as reduction in aggregation at 10 uM relative to control.
Assay [4] addresses Microtubule-associated protein tau (Homo sapiens) (UniProt P10636). The experiment in a line: Inhibition of human tau (441 residues) expressed in Escherichia coli BL21(DE3) assessed as reduction in aggregation at 10 uM relative to control.

Chain of Microtubule-associated protein tau (Homo sapiens) (P10636 whole entry): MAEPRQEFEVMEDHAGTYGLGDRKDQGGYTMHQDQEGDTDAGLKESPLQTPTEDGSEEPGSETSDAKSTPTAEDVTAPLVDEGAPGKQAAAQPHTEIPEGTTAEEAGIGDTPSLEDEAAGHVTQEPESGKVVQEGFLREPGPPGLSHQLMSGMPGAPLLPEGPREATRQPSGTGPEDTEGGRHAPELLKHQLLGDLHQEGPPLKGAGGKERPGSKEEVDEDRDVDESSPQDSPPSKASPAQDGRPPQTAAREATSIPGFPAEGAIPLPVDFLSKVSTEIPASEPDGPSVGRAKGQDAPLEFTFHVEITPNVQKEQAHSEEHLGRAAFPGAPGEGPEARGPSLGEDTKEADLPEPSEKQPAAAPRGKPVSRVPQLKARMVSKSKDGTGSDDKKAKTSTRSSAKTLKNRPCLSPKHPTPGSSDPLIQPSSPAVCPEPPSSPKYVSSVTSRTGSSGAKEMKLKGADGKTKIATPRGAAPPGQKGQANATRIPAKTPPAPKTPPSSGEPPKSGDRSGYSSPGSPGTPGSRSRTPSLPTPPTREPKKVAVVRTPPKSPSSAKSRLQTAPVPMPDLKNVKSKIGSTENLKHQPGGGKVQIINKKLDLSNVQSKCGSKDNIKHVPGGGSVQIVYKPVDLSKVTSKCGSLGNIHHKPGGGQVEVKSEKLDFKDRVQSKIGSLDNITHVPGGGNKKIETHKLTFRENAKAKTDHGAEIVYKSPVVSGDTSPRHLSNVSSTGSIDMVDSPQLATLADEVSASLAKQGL

For `COC(=O)C1=CO[C@@H](O[C@@H]2O[C@H](CO)[C@@H](O)[C@H](O)[C@H]2O)[C@@H]2[C@@H](C)[C@@H](O)C[C@H]12` [LOGANIN], in assay [1], the inhibitory constant (Ki) (as a rule, a dissociation constant, usually derived from enzyme kinetics or from competition with a known ligand) amounted to 55 µM.
Consider `C/C=C1/[C@H](O)OC=C(C(=O)OC)[C@H]1CC(=O)OCCc1ccc(O)c(O)c1`, for which, in assay [2], the IC50 – broadly, the concentration that gives 50% inhibition – was 1.3 µM. Moreover, the inhibition – broadly, how much of the control response was suppressed – in assay [3] was 84%; in assay [4] it was 79%.
